{"source": "paper PMC8019157", "about": "(Antiviral research, 2021)", "key": {"SERCA1 [1]": {"biological_target": "T1, SERCA1 (Oryctolagus cuniculus, UniProt P04191)", "test": "SERCA1 ATPase activity", "assay_type": "biochemical, rabbit", "details": "0 – 20 μM, 20 min at 37°C, with and without A23187"}, "[2]": {"details": "EFV daily dose of up to 600 mg/day, cited from earlier work"}, "[3]": {"test_system": "C2C12 skeletal muscle myotubes", "test": "Live-cell Ca^2+ imaging", "assay_type": "cell-based, Mouse"}, "RyR1": {"biological_target": "RyR1 (Oryctolagus cuniculus, UniProt P11716)", "sequence (P11716 whole entry)": "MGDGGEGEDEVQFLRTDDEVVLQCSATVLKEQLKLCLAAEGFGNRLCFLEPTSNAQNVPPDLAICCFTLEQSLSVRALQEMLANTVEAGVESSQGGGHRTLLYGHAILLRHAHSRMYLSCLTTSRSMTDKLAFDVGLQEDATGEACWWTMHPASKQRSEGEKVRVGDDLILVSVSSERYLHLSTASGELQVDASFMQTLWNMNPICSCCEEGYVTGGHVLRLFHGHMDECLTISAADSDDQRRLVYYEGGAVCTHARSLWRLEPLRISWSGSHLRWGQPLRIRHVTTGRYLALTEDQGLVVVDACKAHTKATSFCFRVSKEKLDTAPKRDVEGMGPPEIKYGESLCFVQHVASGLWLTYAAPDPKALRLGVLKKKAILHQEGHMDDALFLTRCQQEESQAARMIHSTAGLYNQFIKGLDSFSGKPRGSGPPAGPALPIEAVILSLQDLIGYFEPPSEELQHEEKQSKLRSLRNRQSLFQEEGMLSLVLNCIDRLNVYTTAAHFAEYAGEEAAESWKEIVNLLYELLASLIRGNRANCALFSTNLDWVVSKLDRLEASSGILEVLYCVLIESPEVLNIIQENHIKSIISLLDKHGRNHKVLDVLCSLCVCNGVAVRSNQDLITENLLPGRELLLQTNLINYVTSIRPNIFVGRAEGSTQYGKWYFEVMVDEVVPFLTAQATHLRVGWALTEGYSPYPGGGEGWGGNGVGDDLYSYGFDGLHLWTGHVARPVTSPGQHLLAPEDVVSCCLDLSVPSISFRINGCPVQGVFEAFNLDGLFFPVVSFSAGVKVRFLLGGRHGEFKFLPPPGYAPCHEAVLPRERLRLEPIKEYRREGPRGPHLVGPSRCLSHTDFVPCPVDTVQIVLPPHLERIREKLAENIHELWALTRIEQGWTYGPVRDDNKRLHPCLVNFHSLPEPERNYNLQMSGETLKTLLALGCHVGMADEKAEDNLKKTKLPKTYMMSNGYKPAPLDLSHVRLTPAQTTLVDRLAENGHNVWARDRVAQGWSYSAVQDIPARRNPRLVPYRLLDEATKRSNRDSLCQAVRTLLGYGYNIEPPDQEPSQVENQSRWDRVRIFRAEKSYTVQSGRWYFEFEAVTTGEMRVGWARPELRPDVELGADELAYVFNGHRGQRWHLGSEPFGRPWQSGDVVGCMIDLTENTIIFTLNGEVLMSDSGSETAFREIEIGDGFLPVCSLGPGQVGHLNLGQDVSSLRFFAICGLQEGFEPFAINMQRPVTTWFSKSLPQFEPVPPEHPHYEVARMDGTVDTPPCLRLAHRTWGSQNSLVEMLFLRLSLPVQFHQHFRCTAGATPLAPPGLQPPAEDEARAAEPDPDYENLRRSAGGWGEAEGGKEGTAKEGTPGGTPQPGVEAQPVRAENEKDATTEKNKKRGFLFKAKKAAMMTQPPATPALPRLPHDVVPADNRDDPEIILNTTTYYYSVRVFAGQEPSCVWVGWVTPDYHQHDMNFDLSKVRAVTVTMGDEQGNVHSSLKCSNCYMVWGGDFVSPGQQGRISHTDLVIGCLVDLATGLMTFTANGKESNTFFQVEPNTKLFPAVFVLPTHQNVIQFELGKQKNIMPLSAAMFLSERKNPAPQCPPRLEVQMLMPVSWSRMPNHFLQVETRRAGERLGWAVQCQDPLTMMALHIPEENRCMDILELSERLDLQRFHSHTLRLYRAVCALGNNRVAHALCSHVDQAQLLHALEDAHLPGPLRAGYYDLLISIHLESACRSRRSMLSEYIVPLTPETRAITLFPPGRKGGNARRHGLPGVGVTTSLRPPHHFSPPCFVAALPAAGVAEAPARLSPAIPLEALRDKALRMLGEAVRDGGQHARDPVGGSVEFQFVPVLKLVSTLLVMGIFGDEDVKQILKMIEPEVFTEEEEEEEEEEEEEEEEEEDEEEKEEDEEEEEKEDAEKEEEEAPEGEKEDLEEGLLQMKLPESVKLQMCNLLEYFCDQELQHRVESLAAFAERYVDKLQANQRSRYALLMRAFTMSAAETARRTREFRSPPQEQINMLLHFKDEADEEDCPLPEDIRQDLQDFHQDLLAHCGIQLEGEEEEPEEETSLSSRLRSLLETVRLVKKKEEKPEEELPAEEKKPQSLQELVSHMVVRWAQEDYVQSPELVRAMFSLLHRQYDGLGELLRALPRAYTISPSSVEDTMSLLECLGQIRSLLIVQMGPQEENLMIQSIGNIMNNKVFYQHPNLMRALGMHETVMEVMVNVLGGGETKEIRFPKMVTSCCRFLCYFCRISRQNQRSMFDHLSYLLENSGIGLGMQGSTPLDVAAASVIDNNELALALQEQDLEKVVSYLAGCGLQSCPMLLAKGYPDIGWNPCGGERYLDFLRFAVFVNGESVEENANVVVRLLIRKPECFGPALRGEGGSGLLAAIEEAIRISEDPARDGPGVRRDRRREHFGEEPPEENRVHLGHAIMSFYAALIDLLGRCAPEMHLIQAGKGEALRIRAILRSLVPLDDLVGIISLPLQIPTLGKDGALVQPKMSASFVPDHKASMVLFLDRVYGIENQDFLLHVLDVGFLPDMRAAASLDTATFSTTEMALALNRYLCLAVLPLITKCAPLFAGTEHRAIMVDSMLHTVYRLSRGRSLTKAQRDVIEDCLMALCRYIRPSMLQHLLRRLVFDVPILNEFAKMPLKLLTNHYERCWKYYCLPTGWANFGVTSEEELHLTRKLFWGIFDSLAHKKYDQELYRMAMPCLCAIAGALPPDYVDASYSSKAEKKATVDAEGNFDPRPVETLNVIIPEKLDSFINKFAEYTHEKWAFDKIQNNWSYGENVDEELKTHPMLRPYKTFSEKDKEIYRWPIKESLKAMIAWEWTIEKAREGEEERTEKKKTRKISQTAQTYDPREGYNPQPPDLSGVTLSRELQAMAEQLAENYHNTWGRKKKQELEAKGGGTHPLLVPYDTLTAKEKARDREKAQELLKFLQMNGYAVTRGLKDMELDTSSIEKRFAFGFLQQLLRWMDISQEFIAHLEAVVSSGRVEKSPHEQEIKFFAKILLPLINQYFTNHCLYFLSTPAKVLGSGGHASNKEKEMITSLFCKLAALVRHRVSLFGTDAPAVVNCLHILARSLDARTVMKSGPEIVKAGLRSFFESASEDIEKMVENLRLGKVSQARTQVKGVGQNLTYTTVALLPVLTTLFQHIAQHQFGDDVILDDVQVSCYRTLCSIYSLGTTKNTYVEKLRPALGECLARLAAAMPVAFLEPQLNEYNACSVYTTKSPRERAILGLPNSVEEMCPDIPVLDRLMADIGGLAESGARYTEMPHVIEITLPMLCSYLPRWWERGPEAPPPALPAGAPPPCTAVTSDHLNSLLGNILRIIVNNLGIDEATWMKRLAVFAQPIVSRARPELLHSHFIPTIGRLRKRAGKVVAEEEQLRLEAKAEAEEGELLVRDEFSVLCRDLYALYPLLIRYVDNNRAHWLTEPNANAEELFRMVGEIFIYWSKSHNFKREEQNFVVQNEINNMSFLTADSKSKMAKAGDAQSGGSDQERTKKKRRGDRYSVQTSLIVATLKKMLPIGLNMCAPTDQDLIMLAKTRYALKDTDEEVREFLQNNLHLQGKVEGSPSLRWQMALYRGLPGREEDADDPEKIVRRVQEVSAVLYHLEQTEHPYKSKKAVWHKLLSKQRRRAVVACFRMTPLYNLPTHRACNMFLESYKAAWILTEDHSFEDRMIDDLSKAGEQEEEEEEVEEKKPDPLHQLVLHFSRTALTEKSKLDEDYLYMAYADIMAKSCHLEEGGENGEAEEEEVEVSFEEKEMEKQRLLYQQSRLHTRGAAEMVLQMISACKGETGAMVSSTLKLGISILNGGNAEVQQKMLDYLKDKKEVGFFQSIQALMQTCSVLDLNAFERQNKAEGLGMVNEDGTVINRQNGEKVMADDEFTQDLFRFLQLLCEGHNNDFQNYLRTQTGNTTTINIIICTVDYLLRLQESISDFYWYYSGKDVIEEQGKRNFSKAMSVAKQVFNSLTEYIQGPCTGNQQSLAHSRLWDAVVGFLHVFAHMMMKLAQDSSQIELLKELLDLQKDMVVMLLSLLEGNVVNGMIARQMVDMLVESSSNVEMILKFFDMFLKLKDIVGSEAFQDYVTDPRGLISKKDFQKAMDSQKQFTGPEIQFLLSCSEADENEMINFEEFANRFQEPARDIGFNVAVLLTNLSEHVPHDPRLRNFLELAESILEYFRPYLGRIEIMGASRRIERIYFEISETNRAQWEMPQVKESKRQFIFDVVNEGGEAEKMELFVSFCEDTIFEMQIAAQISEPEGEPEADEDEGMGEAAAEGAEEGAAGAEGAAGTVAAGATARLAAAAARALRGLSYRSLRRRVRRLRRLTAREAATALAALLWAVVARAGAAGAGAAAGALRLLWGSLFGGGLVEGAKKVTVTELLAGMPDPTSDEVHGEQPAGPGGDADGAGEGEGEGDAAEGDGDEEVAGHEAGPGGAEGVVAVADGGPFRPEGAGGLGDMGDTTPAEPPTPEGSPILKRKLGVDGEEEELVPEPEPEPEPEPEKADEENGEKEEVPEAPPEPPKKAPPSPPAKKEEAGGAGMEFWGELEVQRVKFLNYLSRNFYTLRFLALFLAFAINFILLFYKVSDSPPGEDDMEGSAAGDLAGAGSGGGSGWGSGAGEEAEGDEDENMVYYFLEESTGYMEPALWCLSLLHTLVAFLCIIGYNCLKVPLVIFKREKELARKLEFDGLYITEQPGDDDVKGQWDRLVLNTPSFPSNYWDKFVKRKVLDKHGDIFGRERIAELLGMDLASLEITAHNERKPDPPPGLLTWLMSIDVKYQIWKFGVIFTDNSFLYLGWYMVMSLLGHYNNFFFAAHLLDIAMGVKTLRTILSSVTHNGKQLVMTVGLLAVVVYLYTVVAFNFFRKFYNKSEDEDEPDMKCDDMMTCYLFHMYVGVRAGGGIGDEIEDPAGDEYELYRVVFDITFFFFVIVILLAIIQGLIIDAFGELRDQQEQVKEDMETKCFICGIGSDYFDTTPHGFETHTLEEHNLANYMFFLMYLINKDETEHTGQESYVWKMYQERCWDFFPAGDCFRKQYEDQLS", "test": "Lipid bilayer single channel recordings of purified RyR1", "assay_type": "biochemical, rabbit"}, "[4]": {"test": "Drug dissolved in ethanol/water", "assay_type": "physicochemical", "details": "room temperature (22 °C), HPLC"}, "SERCA1 [5]": {"biological_target": "T1, SERCA1", "test": "ATP-dependent ^45Ca^2+ accumulation by longitudinal SR vesicles", "assay_type": "biochemical, rabbit", "details": "0 – 31.2 μM, 20 min at 37°C"}, "[6]": {"biological_target": "rabbit skeletal muscle ryanodine receptor Ca^2+ release channel (RyR1) (Oryctolagus cuniculus, UniProt P11716)", "sequence (P11716 whole entry)": "as above", "test": "[^3H]ryanodine binding/displacement assay with SR membrane vesicles"}, "[7]": {"details": "6 μM, antiretroviral-naïve C2C12 myotubes"}, "[8]": {"details": "Efavirenz 2.50 μM cis, 3.0 μM cis Ca^2+"}, "[9]": {"details": "Efavirenz 5.00 μM cis, 3.0 μM cis Ca^2+"}, "[10]": {"details": "Efavirenz 12.50 μM cis, 3.0 μM cis Ca^2+"}, "[11]": {"details": "Efavirenz 20.00 μM cis, 3.0 μM cis Ca^2+"}, "[12]": {"details": "Efavirenz 31.20 μM cis, 3.0 μM cis Ca^2+"}, "[13]": {"details": "Efavirenz […] cis, 3.0 μM cis Ca^2+"}}, "data": [{"smiles": "O=C1Nc2ccc(Cl)cc2[C@@](C#CC2CC2)(C(F)(F)F)O1", "note": "[EFV, efavirenz]", "values": [{"measurement": "effect on ATPase activity of SERCA1", "setting": "SERCA1 [1]", "result": "did not show any significant effect"}, {"measurement": "plasma Cmax", "setting": "[2]", "result": "~ 2.5 μg/ml"}, {"measurement": "Cmax", "setting": "[2]; read-out: plasma Cmax", "result": "~8", "unit": "µM"}, {"measurement": "Ca^2+ transient in C2C12 cells pretreated with 50 μM ryanodine for 20 min", "setting": "[3]", "result": "attenuated Ca^2+ transient"}, {"measurement": "duration of the global Ca^2+ transient", "setting": "[3]; 6 μM", "result": "about 90 sec"}, {"measurement": "effect on plasma membrane of C2C12 cells", "setting": "[3]; 6 μM", "result": "blebbing"}, {"measurement": "mean peak amplitude of the Ca^2+ transient", "setting": "[3]; [7]", "result": "3.9 ± 0.3", "unit": "f.u."}, {"measurement": "rate of Ca^2+ rise", "setting": "[3]; [7]", "result": "0.14 ± 0.01", "unit": "f.u./sec"}, {"measurement": "rate of Ca^2+ transient decay", "setting": "[3]; [7]", "result": "0.04 ± 0.00", "unit": "f.u./sec"}, {"measurement": "response to a second dose in previously exposed C2C12 cells", "setting": "[3]; second dose 6 μM", "result": "did not elicit a second Ca^2+ transient"}, {"measurement": "time after which the channel went into an irreversible shut state", "setting": "RyR1; 31.2 nM cis EFV (so in the source)", "result": 90, "unit": "s"}, {"measurement": "increase in Po of RyR1", "setting": "RyR1; 240 nM cis EFV, within 15 sec, 3.0 μM cis Ca^2+", "result": "eight-fold"}, {"measurement": "conductance of reduced conductance state R1", "setting": "RyR1; 2.5 μM cis EFV", "result": "233 ± 15", "unit": "pS"}, {"measurement": "reduced conductance state R1, current amplitude", "setting": "RyR1; 2.5 μM cis EFV", "result": "33 % of maximum"}, {"measurement": "duration of R1 state", "setting": "RyR1; 2.5 μM cis EFV, +30 mV", "result": "~ 375 msec"}, {"measurement": "duration of R1 state", "setting": "RyR1; 2.5 μM cis EFV, −30 mV", "result": "~ 125 msec"}, {"measurement": "conductance of reduced conductance state R2", "setting": "RyR1; 5.0 μM cis EFV", "result": "479 ± 24", "unit": "pS"}, {"measurement": "Closed- maximally opened transitions (Hz)", "setting": "RyR1; [8]", "result": "1122 ±22", "unit": "Hz"}, {"measurement": "Dwell time closed state", "setting": "RyR1; [8]", "result": "1.38 ± 0.08"}, {"measurement": "Dwell time open state", "setting": "RyR1; [8]", "result": "0.74 ± 0.06"}, {"measurement": "Po (+30 mV)", "setting": "RyR1; [8]", "result": "0.22 ± 0.01"}, {"measurement": "Closed- maximally opened transitions (Hz)", "setting": "RyR1; [9]", "result": "1046 ±30", "unit": "Hz"}, {"measurement": "Dwell time closed state", "setting": "RyR1; [9]", "result": "0.56 ± 0.07"}, {"measurement": "Dwell time open state", "setting": "RyR1; [9]", "result": "1.01 ± 0.01"}, {"measurement": "Po (+30 mV)", "setting": "RyR1; [9]", "result": "0.59 ± 0.03"}, {"measurement": "Closed- maximally opened transitions (Hz)", "setting": "RyR1; [10]", "result": "1005 ±16", "unit": "Hz"}, {"measurement": "Dwell time closed state", "setting": "RyR1; [10]", "result": "0.53 ± 0.46"}, {"measurement": "Dwell time open state", "setting": "RyR1; [10]", "result": "1.03 ± 0.05"}, {"measurement": "Po (+30 mV)", "setting": "RyR1; [10]", "result": "0.69 ± 0.04"}, {"measurement": "Closed- maximally opened transitions (Hz)", "setting": "RyR1; [11]", "result": "1060 ±25", "unit": "Hz"}, {"measurement": "Dwell time closed state", "setting": "RyR1; [11]", "result": "0.57 ± 0.06"}, {"measurement": "Dwell time open state", "setting": "RyR1; [11]", "result": "0.99 ± 0.04"}, {"measurement": "Po (+30 mV)", "setting": "RyR1; [11]", "result": "0.67 ± 0.04"}, {"measurement": "Closed- maximally opened transitions (Hz)", "setting": "RyR1; [12]", "result": "1064 ±25", "unit": "Hz"}, {"measurement": "Dwell time closed state", "setting": "RyR1; [12]", "result": "1.53 ± 0.02"}, {"measurement": "Dwell time open state", "setting": "RyR1; [12]", "result": "0.73 ± 0.06"}, {"measurement": "Po (+30 mV)", "setting": "RyR1; [12]", "result": "0.38 ± 0.01"}, {"measurement": "Closed- maximally opened transitions (Hz)", "setting": "RyR1; [13]", "result": "1125 ±24", "unit": "Hz"}, {"measurement": "Dwell time closed state", "setting": "RyR1; [13]", "result": "4.91 ± 0.43"}, {"measurement": "Dwell time open state", "setting": "RyR1; [13]", "result": "0.61 ± 0.07"}, {"measurement": "Po (+30 mV)", "setting": "RyR1; [13]", "result": "0.08 ± 0.01"}, {"measurement": "effect on Po of RyR1 of concentrations lower than 240 nM", "setting": "RyR1; up to 5 minutes after cis addition", "result": "no effect"}, {"measurement": "fraction dissolved in ethanol/water (1:1)", "setting": "[4]", "result": 6.3, "unit": "%"}, {"measurement": "stock concentration in ethanol/water (1:1)", "setting": "[4]", "result": 1.8, "unit": "mM"}, {"measurement": "effect on ATP-dependent Ca^2+ transport by SERCA1", "setting": "SERCA1 [5]", "result": "no effect"}, {"measurement": "Hill slope of displacement curve", "setting": "[6]", "result": 1.6}, {"measurement": "concentrations that enhanced [^3H]ryanodine binding to RyR1", "setting": "[6]; 2 hr at 37°C", "result": "1 to 10", "unit": "nM"}]}]}
